Test results taken from US20080249028A1, “Thyrotropin-Releasing Hormone Analogs and Method of Use” (Roger Williams Hospital, priority 2005, published 2008).
Where a SMILES comes first, the peptide text is derived from it. [ ]: non-standard residue; d: D form. pGlu = O=C1CC[CH](C(=O)O)N1

System: STZ-induced hyperglycemic rats
Experiment: Effect on STZ-induced hyperglycemia in rats (blood glucose level)
Assay type: in vivo, rat
Method: Male Sprague-Dawley rats (S.D. 180 g) were used in the experiments described below. The animals lived in individual metabolism cages with free access to food and water, while food and body weight were monitored daily. Peripheral blood samples (approximately 10 μl) were obtained from the tail vein of the animals. The blood glucose levels were measured by using Accu-Check Blood Glucose Meter (Roche Diagnosetics Corporation, IN). Beta cell function was evaluated once every two days over a 2-week period by an individual unaware of the treatment group. Animals were evaluated separately for blood glucose level, food intake and body weight. The endpoint check was pancreatic insulin content and pancreatic beta cell number.
Streptozotocin (STZ) was used to chemically induce damage in pancreatic function in order to create a hyperglycemic state in the animals. Eight-week old male Sprague-Dawley rats (200.00 g±10 g) were injected with STZ by intraperitoneal (i.p.) (65 mg/kg body weight (BW)) to create hyperglycemic animals (24 to 48 hours). Blood glucose levels were monitored daily. Onset of hyperglycemia occurred usually about 24 to 48 hours after STZ administration.
[…] the seventh day or on the third day after STZ administration, which allowed for examination of the TRH/TRH analog treatment and the degree of pancreatic damage in the diabetic animal. Again, food intake, body weight and blood glucose levels of each of the animals were monitored. When hyperglycemia was determined to be reversed by TRH/TRH analog, the animal was sacrificed. Blood samples were collected for insulin assay and the pancreas and muscles were collected for further pathological and physiological tests.
The figures shown in the tables are blood glucose levels (mg/dL; i.e., milligrams of glucose per deciliter of blood).

NC(=O)CNC(=O)C1CCCN1C(=O)C(Cc1c[nH]cn1)NC(=O)C1CCC(=O)N1 (stereo not drawn) [Glp, Glp-His-Pro-Gly-NH2] ([pGlu]HPG-NH2; configuration not given here)
blood glucose level (Table 1, rats, STZ + compound i.p., Day 1): 103.8 mg/dL | blood glucose level (Table 1, rats, STZ + compound i.p., Day 2): 396 mg/dL | blood glucose level (Table 1, rats, STZ + compound i.p., Day 4): 446 mg/dL | blood glucose level (Table 1, rats, STZ + compound i.p., Day 9): 275 mg/dL | blood glucose level (Table 1, rats, STZ + compound i.p., Day 15): 348 mg/dL | blood glucose level (Table 1, rats, STZ + compound i.p., Day 22): 419 mg/dL | blood glucose level (Table 1, rats, STZ + compound i.p., Day 29): 431 mg/dL | blood glucose level (Table 1, rats, STZ + compound i.p., Day 39): 448 mg/dL | blood glucose level (Table 1, rats, STZ + compound i.p., Day 43): 423 mg/dL | blood glucose level (Table 1, rats, STZ + compound i.p., Day 50): 416 mg/dL | blood glucose level (Table 1, rats, STZ + compound i.p., Day 53): 432 mg/dL | blood glucose level (Table 1, rats, STZ + compound i.p., Day 56): 400 mg/dL | blood glucose level (Table 1, rats, STZ + compound i.p., Day 60): 468 mg/dL | blood glucose level (Table 1, rats, STZ + compound i.p., Day 64): 421 mg/dL

NC(=O)C1CCCN1C(=O)C(Cc1c[nH]cn1)NC(=O)C(N)CCC(=O)O (stereo not drawn) [GluT, 4-Amino-4-[2-(2-carbamoyl-pyrrolidin-1-yl)-1-(1H-imidazol-4-ylmethyl)-2-oxo-ethylcarbamoyl]-butyric acid]
blood glucose level (Tables 2-3, rats, STZ + compound 5 µg/kg, Day 1): 94 mg/dL | blood glucose level (Tables 2-3, rats, STZ + compound 5 µg/kg, Day 4): 98 mg/dL | blood glucose level (Tables 2-3, rats, STZ + compound 5 µg/kg, Day 7): 466 mg/dL | blood glucose level (Tables 2-3, rats, STZ + compound 5 µg/kg, Day 11): 457 mg/dL | blood glucose level (Tables 2-3, rats, STZ + compound 5 µg/kg, Day 15): 186 mg/dL | blood glucose level (Tables 2-3, rats, STZ + compound 5 µg/kg, Day 18): 215 mg/dL | blood glucose level (Tables 2-3, rats, STZ + compound 5 µg/kg, Day 21): 213 mg/dL | blood glucose level (Tables 2-3, rats, STZ + compound 5 µg/kg, Day 25): 173 mg/dL | blood glucose level (Tables 2-3, rats, STZ + compound 5 µg/kg, Day 28): 369 mg/dL | blood glucose level (Tables 2-3, rats, STZ + compound 5 µg/kg, Day 32): 342 mg/dL | blood glucose level (Tables 2-3, rats, STZ + compound 5 µg/kg, Day 35): 336 mg/dL | blood glucose level (Tables 2-3, rats, STZ + compound 5 µg/kg, Day 39): 376 mg/dL | blood glucose level (Tables 2-3, rats, STZ + compound 5 µg/kg, Day 42): 390 mg/dL | blood glucose level (Tables 2-3, rats, STZ + compound 5 µg/kg, Day 46): 317 mg/dL | blood glucose level (Tables 2-3, rats, STZ + compound 5 µg/kg, Day 54): 260 mg/dL | blood glucose level (Tables 2-3, rats, STZ + compound 5 µg/kg, Day 61): 324 mg/dL | blood glucose level (Tables 2-3, rats, STZ + compound 10 µg/kg, Day 1): 103 mg/dL | blood glucose level (Tables 2-3, rats, STZ + compound 10 µg/kg, Day 4): 99 mg/dL | blood glucose level (Tables 2-3, rats, STZ + compound 10 µg/kg, Day 7): 415 mg/dL | blood glucose level (Tables 2-3, rats, STZ + compound 10 µg/kg, Day 11): 477 mg/dL | blood glucose level (Tables 2-3, rats, STZ + compound 10 µg/kg, Day 15): 117 mg/dL | blood glucose level (Tables 2-3, rats, STZ + compound 10 µg/kg, Day 18): 125 mg/dL | blood glucose level (Tables 2-3, rats, STZ + compound 10 µg/kg, Day 21): 103 mg/dL | blood glucose level (Tables 2-3, rats, STZ + compound 10 µg/kg, Day 25): 102 mg/dL | blood glucose level (Tables 2-3, rats, STZ + compound 10 µg/kg, Day 28): 429 mg/dL | blood glucose level (Tables 2-3, rats, STZ + compound 10 µg/kg, Day 32): 111 mg/dL | blood glucose level (Tables 2-3, rats, STZ + compound 10 µg/kg, Day 35): 128 mg/dL | blood glucose level (Tables 2-3, rats, STZ + compound 10 µg/kg, Day 39): 252 mg/dL | blood glucose level (Tables 2-3, rats, STZ + compound 10 µg/kg, Day 42): 224 mg/dL | blood glucose level (Tables 2-3, rats, STZ + compound 10 µg/kg, Day 46): 289 mg/dL | blood glucose level (Tables 2-3, rats, STZ + compound 10 µg/kg, Day 54): 255 mg/dL | blood glucose level (Tables 2-3, rats, STZ + compound 10 µg/kg, Day 61): 218 mg/dL | blood glucose level (Tables 2-3, rats, STZ + compound 20 µg/kg, Day 1): 103 mg/dL | blood glucose level (Tables 2-3, rats, STZ + compound 20 µg/kg, Day 4): 98 mg/dL | blood glucose level (Tables 2-3, rats, STZ + compound 20 µg/kg, Day 7): 461 mg/dL | blood glucose level (Tables 2-3, rats, STZ + compound 20 µg/kg, Day 11): 502 mg/dL | blood glucose level (Tables 2-3, rats, STZ + compound 20 µg/kg, Day 15): 266 mg/dL | blood glucose level (Tables 2-3, rats, STZ + compound 20 µg/kg, Day 18): 263 mg/dL | blood glucose level (Tables 2-3, rats, STZ + compound 20 µg/kg, Day 21): 382 mg/dL | blood glucose level (Tables 2-3, rats, STZ + compound 20 µg/kg, Day 25): 345 mg/dL | blood glucose level (Tables 2-3, rats, STZ + compound 20 µg/kg, Day 28): 496 mg/dL | blood glucose level (Tables 2-3, rats, STZ + compound 20 µg/kg, Day 32): 468 mg/dL | blood glucose level (Tables 2-3, rats, STZ + compound 20 µg/kg, Day 35): 485 mg/dL | blood glucose level (Tables 2-3, rats, STZ + compound 20 µg/kg, Day 39): 477 mg/dL | blood glucose level (Tables 2-3, rats, STZ + compound 20 µg/kg, Day 42): 457 mg/dL | blood glucose level (Tables 2-3, rats, STZ + compound 20 µg/kg, Day 46): 487 mg/dL | blood glucose level (Tables 2-3, rats, STZ + compound 20 µg/kg, Day 54): 389 mg/dL | blood glucose level (Tables 2-3, rats, STZ + compound 20 µg/kg, Day 61): 452 mg/dL | blood glucose level (Tables 2-3, rats, STZ + compound 40 µg/kg, Day 1): 105 mg/dL | blood glucose level (Tables 2-3, rats, STZ + compound 40 µg/kg, Day 4): 99 mg/dL | blood glucose level (Tables 2-3, rats, STZ + compound 40 µg/kg, Day 7): 548 mg/dL | blood glucose level (Tables 2-3, rats, STZ + compound 40 µg/kg, Day 11): 568 mg/dL | blood glucose level (Tables 2-3, rats, STZ + compound 40 µg/kg, Day 15): 327 mg/dL | blood glucose level (Tables 2-3, rats, STZ + compound 40 µg/kg, Day 18): 405 mg/dL | blood glucose level (Tables 2-3, rats, STZ + compound 40 µg/kg, Day 21): 472 mg/dL | blood glucose level (Tables 2-3, rats, STZ + compound 40 µg/kg, Day 25): 455 mg/dL | blood glucose level (Tables 2-3, rats, STZ + compound 40 µg/kg, Day 28): 514 mg/dL | blood glucose level (Tables 2-3, rats, STZ + compound 40 µg/kg, Day 32): 543 mg/dL | blood glucose level (Tables 2-3, rats, STZ + compound 40 µg/kg, Day 35): 507 mg/dL | blood glucose level (Tables 2-3, rats, STZ + compound 40 µg/kg, Day 39): 589 mg/dL | blood glucose level (Tables 2-3, rats, STZ + compound 40 µg/kg, Day 42): 592 mg/dL | blood glucose level (Tables 2-3, rats, STZ + compound 40 µg/kg, Day 46): 609 mg/dL | blood glucose level (Tables 2-3, rats, STZ + compound 40 µg/kg, Day 54): 531 mg/dL | blood glucose level (Tables 2-3, rats, STZ + compound 40 µg/kg, Day 61): 413 mg/dL
